One may read the Km as the concentration of substrate that gives half-maximal velocity. What is called Vmax is the rate approached at saturating substrate.

Data set [1] in a line: Drug metabolism in pig liver microsomes assessed as IRI-O-4'-monoglucuronide formation incubated for 5 mins prior to UDPGA addition measured after 90 mins by Eadie-Hoftsee plot analysis. The data set is classed as ADME, Sus scrofa. The note with it: 1.5 h. (Liver microsomes are vesicles of endoplasmic reticulum, rich in cytochrome P450 enzymes.)
The target of data set [2] is T1, UDP-glucuronosyltransferase 1A10 (Homo sapiens, UniProt Q9HAW8).
T1 sequence (Q9HAW8 whole entry): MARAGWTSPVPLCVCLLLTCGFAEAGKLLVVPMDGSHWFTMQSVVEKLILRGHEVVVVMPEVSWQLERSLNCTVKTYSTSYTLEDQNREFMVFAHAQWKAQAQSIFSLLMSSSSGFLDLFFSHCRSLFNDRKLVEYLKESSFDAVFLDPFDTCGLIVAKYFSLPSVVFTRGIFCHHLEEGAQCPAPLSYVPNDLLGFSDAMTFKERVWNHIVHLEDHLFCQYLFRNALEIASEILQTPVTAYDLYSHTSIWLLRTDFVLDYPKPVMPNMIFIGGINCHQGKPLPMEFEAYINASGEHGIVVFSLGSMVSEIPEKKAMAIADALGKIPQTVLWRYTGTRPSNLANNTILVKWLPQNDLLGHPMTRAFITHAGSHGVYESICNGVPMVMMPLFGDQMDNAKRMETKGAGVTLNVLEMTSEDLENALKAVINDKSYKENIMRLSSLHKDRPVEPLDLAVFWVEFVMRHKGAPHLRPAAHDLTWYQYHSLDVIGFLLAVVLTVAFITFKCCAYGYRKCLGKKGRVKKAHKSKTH
The data set can be described thus: Activity of human recombinant UGT1A10 assessed as intrinsic clearance incubated for 5 mins prior to UDPGA addition measured after 90 mins. The data set is classed as ADME. The note with it: recombinant enzyme, 1.5 h.

Data set [3] has as its target T2, UDP-glucuronosyltransferase 1A1 (Homo sapiens, UniProt P22309).
T2 sequence (P22309 whole entry): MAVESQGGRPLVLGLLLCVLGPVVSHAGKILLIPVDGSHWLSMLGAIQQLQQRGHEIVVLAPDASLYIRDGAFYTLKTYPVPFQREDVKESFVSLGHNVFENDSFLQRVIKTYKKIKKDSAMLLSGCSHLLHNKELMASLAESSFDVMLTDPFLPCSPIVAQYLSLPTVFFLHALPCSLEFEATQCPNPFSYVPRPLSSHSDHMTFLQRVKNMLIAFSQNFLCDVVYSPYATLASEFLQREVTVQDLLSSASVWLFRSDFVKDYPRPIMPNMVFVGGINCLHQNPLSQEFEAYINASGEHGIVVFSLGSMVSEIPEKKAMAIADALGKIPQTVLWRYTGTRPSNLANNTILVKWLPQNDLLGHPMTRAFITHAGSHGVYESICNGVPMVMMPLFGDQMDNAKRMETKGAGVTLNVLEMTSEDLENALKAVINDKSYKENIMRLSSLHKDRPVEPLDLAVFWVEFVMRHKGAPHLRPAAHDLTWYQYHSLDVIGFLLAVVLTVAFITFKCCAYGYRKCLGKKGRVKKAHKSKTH
Description: Substrate inhibition of human recombinant UGT1A1 assessed as IRI-O-5-monoglucuronide formation incubated for 5 mins prior to UDPGA addition measured after 90 mins by Eadie-Hoftsee plot analysis. It is filed as ADME.

The target of data set [4] is T3, UDP-glucuronosyltransferase 1A8 (Homo sapiens, UniProt Q9HAW9).
T3 sequence (Q9HAW9 whole entry): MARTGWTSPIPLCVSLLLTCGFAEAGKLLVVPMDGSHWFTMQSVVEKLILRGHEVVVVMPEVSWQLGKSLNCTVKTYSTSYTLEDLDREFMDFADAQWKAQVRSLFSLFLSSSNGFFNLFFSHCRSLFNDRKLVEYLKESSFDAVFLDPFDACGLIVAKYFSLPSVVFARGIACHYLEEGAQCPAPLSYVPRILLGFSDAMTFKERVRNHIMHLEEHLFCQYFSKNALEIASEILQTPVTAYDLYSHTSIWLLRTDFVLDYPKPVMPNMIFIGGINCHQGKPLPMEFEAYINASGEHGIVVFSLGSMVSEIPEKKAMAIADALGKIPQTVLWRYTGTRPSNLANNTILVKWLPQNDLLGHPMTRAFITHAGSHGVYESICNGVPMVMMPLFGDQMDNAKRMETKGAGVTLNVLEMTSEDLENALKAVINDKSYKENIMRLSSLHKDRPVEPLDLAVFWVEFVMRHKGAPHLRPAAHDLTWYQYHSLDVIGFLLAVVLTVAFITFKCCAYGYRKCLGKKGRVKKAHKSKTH
The data set can be described thus: Substrate inhibition of human recombinant UGT1A8 assessed as IRI-O-4'-monoglucuronide formation incubated for 5 mins prior to UDPGA addition measured after 90 mins by Eadie-Hoftsee plot analysis. The data set is classed as ADME.

The target of data set [5] is T3, UDP-glucuronosyltransferase 1A8. Description: Drug metabolism assessed as human recombinant UGT1A8-mediated irilone-O-4'-monoglucuronide formation at 25 uM incubated for 5 mins prior to UDPGA addition measured after 90 mins by HPLC-DAD analysis. It is filed as ADME. The following applies: recombinant enzyme, 1.5 h.
Data set [6] has as its system Liver microsome. The data set can be described thus: Drug metabolism in Sprague-Dawley rat liver microsomes assessed as IRI-O-5-monoglucuronide formation incubated for 5 mins prior to UDPGA addition measured after 90 mins by Eadie-Hoftsee plot analysis. It is filed as ADME. The note with it: 1.5 h.
Data set [7] concerns the target T4, UDP-glucuronosyltransferase 1A7 (Homo sapiens, UniProt Q9HAW7).
T4 sequence (Q9HAW7 whole entry): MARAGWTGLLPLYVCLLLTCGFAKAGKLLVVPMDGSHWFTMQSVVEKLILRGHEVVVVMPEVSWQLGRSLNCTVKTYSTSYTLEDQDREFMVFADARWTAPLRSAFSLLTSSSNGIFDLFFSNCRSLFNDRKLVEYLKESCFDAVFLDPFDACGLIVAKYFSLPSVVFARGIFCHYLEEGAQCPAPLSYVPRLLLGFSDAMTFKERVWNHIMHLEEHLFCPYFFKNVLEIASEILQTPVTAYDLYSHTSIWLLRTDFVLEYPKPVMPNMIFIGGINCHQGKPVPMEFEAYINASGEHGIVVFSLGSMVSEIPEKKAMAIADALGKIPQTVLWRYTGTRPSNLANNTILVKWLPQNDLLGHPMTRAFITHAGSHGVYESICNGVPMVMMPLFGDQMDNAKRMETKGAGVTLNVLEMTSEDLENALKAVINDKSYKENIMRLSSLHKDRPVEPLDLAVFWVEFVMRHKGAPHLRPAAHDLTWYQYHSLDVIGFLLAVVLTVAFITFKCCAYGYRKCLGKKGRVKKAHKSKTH
The data set can be described thus: Activity of human recombinant UGT1A7 assessed as intrinsic clearance incubated for 5 mins prior to UDPGA addition measured after 90 mins. The note with it: recombinant enzyme, 1.5 h. The data set is classed as ADME.

Data set [8] can be described thus: Drug metabolism in pig liver microsomes assessed as substrate inhibition of IRI-O-5-monoglucuronide formation incubated for 5 mins prior to UDPGA addition measured after 90 mins by Eadie-Hoftsee plot analysis. The data set is classed as ADME, Sus scrofa.
Data set [9] deals with T1, UDP-glucuronosyltransferase 1A10. The data set can be described thus: Drug metabolism assessed as human recombinant UGT1A10-mediated irilone-O-4'-monoglucuronide formation incubated for 5 mins prior to UDPGA addition measured after 90 mins by HPLC-DAD analysis. The data set is classed as ADME. The following applies: recombinant enzyme, 1.5 h.
Data set [10] in a line: Drug metabolism in pig liver microsomes assessed as substrate inhibition of IRI-O-4'-monoglucuronide formation incubated for 5 mins prior to UDPGA addition measured after 90 mins by Eadie-Hoftsee plot analysis. The data set is classed as ADME, Sus scrofa.
The test system of data set [11] is Liver microsome. The data set can be described thus: Intrinsic clearance in human liver microsomes incubated for 5 mins prior to UDPGA addition measured after 90 mins. The data set is classed as ADME. The following applies: 1.5 h.
The target in data set [12] is T4, UDP-glucuronosyltransferase 1A7. Description: Substrate inhibition of human recombinant UGT1A7 assessed as IRI-O-5-monoglucuronide formation incubated for 5 mins prior to UDPGA addition measured after 90 mins by Eadie-Hoftsee plot analysis. The data set is classed as ADME.

On to `O=c1c(-c2ccc(O)cc2)coc2cc3c(c(O)c12)OCO3`, for which the Km was 88.6 µM in [1] and 34 µM in the data set with Liver microsome [6]. For the same molecule, the Vmax in data set [1] turned out to be 4.87 nmol/mg/min; with Liver microsome [6] it was 1.37 nmol/mg/min. Further, the CL in data set [2] was determined as 99900 µL/min/mg; in [7] it was 3900 µL/min/mg. Also, the Ki in [3] amounted to 8.5 µM; in data set [4], 23.4 µM; in data set [8] it was 183 µM; in data set [10], 49.1 µM; in data set [12] it was 101 µM. Further, the Drug metabolism result in data set [5] and in data set [9] was “metabolite_detected” throughout. In the data set with Liver microsome [11], this molecule yielded a CLH of 48500 µL/min/mg.

The values are drawn from ChEMBL document CHEMBL3525955, “Glucuronidation of the red clover isoflavone irilone by liver microsomes from different species and human UDP-glucuronosyltransferases” (Drug Metab Dispos, 2011).
